{"source": "paper PMC6176332", "about": "“Studies on the Interaction between Three Small Flavonoid Molecules and Bovine Lactoferrin” (BioMed Research International, 2018)", "target": "T1, bovine lactoferrin (BLF) (Bos taurus, UniProt P24627)", "T1 construct": "gene LTF", "T1 sequence (P24627 20-708)": "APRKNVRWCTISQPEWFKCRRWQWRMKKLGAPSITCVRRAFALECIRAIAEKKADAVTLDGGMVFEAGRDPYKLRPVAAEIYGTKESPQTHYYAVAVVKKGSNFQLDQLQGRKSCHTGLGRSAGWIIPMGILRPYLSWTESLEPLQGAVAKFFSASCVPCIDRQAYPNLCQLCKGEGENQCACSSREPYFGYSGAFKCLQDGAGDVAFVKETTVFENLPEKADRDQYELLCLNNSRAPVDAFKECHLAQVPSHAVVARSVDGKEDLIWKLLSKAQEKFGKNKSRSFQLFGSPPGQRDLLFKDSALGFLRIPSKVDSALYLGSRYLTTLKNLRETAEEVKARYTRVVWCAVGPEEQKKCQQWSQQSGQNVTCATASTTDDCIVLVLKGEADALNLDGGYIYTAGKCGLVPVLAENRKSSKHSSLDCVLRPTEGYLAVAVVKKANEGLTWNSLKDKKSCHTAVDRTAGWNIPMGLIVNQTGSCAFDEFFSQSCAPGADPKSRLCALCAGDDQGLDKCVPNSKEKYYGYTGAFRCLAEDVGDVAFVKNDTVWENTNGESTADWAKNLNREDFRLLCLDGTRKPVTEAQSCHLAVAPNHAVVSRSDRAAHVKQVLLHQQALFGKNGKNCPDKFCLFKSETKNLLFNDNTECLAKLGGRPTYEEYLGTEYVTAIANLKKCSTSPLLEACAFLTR", "experiment": "intrinsic fluorescence quenching (excitation […] nm), double-log plot", "format": "binding", "conditions": "0.05 M phosphate buffer, pH 7.4, 300 K, about 1% ethanol; n = 1.076; in 1/M"}
{"smiles": "O=C1C[C@@H](c2ccc(O)cc2)Oc2cc(O)cc(O)c21", "note": "[Naringenin]", "values": [{"measurement": "Ka (×10^4M^-1)", "result": "3.05 ×10^4"}]}
